The values that follow come from patent publication US20230058623A1, “NOVEL HETEROARYL-TRIAZOLE COMPOUNDS AS PESTICIDES” (Bayer Aktiengesellschaft, priority 2019, published 2023).

Format in all cases: in vivo
Assay [1] deals with adult brown dog ticks (Rhipicephalus sanguineus). The assay can be described thus: Rhipicephalus sanguineus in-vitro contact test, adult brown dog ticks. The note with it: application rate 5 μg/cm^2 (=500 g/ha), after 48 hours, read-out: activity (efficacy: ticks dead or moribund). The procedure, abridged:
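Acetone solution (900 ppm giving 5 μg/cm²) coated on inner walls of glass tubes; after drying, 5-10 adult ticks added and held at room temperature 48 h. Ticks then placed on 45-50 °C plate ≤5 min; those unable to climb away scored dead/moribund, efficacy as % affected.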

In assay [2] the test system is green peach aphid (Myzus persicae). Briefly: Myzus persicae spray test. The note with it: foliar, 120 h, application rate 100 g/ha, after 5 days, Chinese cabbage leaf disks, read-out: activity (mortality). The procedure, abridged: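 Chinese cabbage leaf disks infested with all aphid instars were sprayed with compound diluted in water containing emulsifier (1000 ppm). Mortality (%) was scored after 5 days, 100% meaning all aphids killed.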

The test system of assay [3] is adult cat fleas (Ctenocephalides felis). The assay can be described thus: Ctenocephalides felis in-vitro contact test, adult cat flea. The note with it: application rate 5 μg/cm^2 (=500 g/ha), after 48 hours, read-out: activity (efficacy: fleas dead or moribund). In outline: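 Acetone solutions of compound were coated onto inner walls of glass tubes (900 ppm giving 5 μg/cm^2) and dried; 5-10 adult C. felis were then held 48 h at room temperature. Efficacy = % fleas dead or moribund, judged by inability to escape a 45-50° C heating plate within 5 min.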

Assay [4] deals with fall armyworm larvae (Spodoptera frugiperda). The assay can be described thus: Spodoptera frugiperda spray test. The note with it: 168 h, application rate 100 g/ha, after 7 days, maize leaf sections. The procedure, abridged:
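Maize leaf sections sprayed with compound diluted in water with 1000 ppm emulsifier, then infested with larvae once dry. Mortality (%) scored after 7 days; 100% = all caterpillars killed.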

The subject of assay [5] is larvae of the southern green stink bug (Nezara viridula). The assay can be described thus: Nezara viridula spray test. The note with it: 96 h, after 4 days, barley plants; for mortality at 500 g/ha: application rate 500 g/ha, read-out: activity (mortality). The procedure, abridged: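 Barley plants sprayed with the active compound in emulsifier-containing water, then infested with stink bug larvae. Mortality scored in % after 4 days, with 100% meaning all insects killed.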

In assay [6] the test system is Rhipicephalus (Boophilus) microplus larvae (strain Parkhurst, resistant against synthetic pyrethroids). Briefly: Rhipicephalus (Boophilus) microplus in-vitro contact test, larval cattle tick. The note with it: after 48 hours, read-out: activity (efficacy: larvae dead or moribund); for pest or weed control at 1 µg/cm2, 100 g/ha: application rate 1 μg/cm^2 (=100 g/ha); for pest or weed control at 5 µg/cm2, 500 g/ha: application rate 5 μg/cm^2 (=500 g/ha). In outline: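 Acetone solutions were coated onto glass tube walls, giving 5 μg/cm^2 at 900 ppm. Once dry, 20–50 pyrethroid-resistant Parkhurst larvae were added per tube and held 48 h at 27 °C and 85% RH. Efficacy was scored by negative geotaxis as the percentage of dead or moribund larvae.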

For assay [7], the system named is southern root-knot nematode (Meloidogyne incognita). The assay can be described thus: Meloidogyne incognita test. The note with it: application rate 20 ppm; after 14 days. Here is the method: Meloidogyne incognita—Test
Solvent: 125.0 parts by weight of acetone
To produce a suitable preparation of active compound, 1 part by weight of active compound is mixed with the stated amount of solvent, and the concentrate is diluted with water to the desired concentration.
Vessels are filled with sand, a solution of the active ingredient, a suspension containing eggs and larvae of the southern root-knot nematode (Meloidogyne incognita) and salad seeds. The salad seeds germinate and the seedlings grow. Galls develop in the roots.
After 14 days the nematicidal activity is determined based on the percentage of gall formation. 100% means no galls were found and 0% means the number of galls found on the roots of the treated plants was equal to that in untreated control plants.

In assay [8] the test system is larvae of the banded cucumber beetle (Diabrotica balteata). Briefly: Diabrotica balteata spray test. The note with it: 168 h, application rate 100 g/ha (=32 μg/well), after 7 days, wheat seeds, read-out: activity (efficacy: seedlings grown). In outline:
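Wheat seeds germinated 1 day on agar were sprayed with compound diluted in water with 1000 ppm emulsifier, then infested with 10-20 Diabrotica balteata larvae. Efficacy in % scored after 7 days: 100% = seedlings grown as untreated, uninfected control; 0% = no seedlings grown.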

Assay [9] has as its system adult flies Musca domestica strain WHO-N. Briefly: Musca domestica test (MUSCDO surface treatment & contact assay). The note with it: surface concentration 20 mg/m^2, exposure 30 minutes, 24 hours after contact, read-out: efficacy (mortality). The procedure, abridged: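 Compound dissolved at 2 mg/ml in acetone with 2000 ppm RME, applied to glazed tile and dried; adult flies exposed on the surface for 30 min. Percent mortality scored 24 h after contact.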

The subject of assay [10] is adult mosquitoes Aedes aegypti strain MONHEIM. The assay can be described thus: Aedes aegypti test (AEDSAE surface treatment & contact assay). The note with it: surface concentration 20 mg/m^2, exposure 30 minutes, 24 hours after contact, read-out: efficacy (mortality). The procedure, abridged:
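Compound in acetone (2 mg/ml) with 2000 ppm RME dried onto glazed tile; adults exposed to the treated surface for 30 min. Percent mortality scored 24 h after contact.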

Assay [11] has as its system adult unfed cat fleas (Ctenocephalides felis). Briefly: Ctenocephalides felis oral test. The note with it: 48 h, read-out: activity (mortality). In outline: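 About 20 adult unfed cat fleas fed through parafilm on citrated cattle blood containing compound (from a DMSO concentrate). Blood held at 37° C, fleas at room temperature. Mortality in % scored after 2 days.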

Assay [12] has as its system adult engorged female ticks (Rhipicephalus microplus). Briefly: Rhipicephalus (Boophilus) microplus injection test. The note with it: 168 h, application rate 4 μg/tick, egg deposition after 7 days, read-out: activity (efficacy: infertile eggs). In outline:
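Five adult engorged female ticks injected into the abdomen with 1 μL compound solution in DMSO, then held in a climate chamber. Fertile egg deposition assessed after 7 days, unclear eggs kept until hatching (about 42 days); efficacy 100% = all eggs infertile, 0% = all fertile.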

For assay [13], the system named is green peach aphid (Myzus persicae). Briefly: Myzus persicae oral test. The note with it: 120 h, read-out: activity (mortality). In outline: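 Compound was dissolved at 1 part by weight in 100 parts acetone, then diluted with water to test concentration and combined with IPL41 insect medium (33%+15% sugar). A mixed aphid population fed on this through a parafilm seal, and mortality (%) was scored after 5 days.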

The test system of assay [14] is brown planthopper (Nilaparvata lugens). The assay can be described thus: Nilaparvata lugens spray test. The note with it: 96 h, application rate 500 g/ha, after 4 days, rice plants. In outline:
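Rice plants sprayed with compound diluted in water containing 1000 ppm emulsifier, then infested with brown planthopper. Mortality (%) scored after 4 days, 100% meaning all insects killed.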

On to `C[C@H](NC(=O)c1cc(C(F)(F)F)cc(C(F)(F)F)c1)c1nc(C2CC2)nn1-c1ccc(C(=O)N2CCOCC2)cn1` [Example I-88], for which the pest or weed control at 5 µg/cm2, 500 g/ha in [1] and in [6] was 100% throughout. The figures for the mortality at 100 g/ha in assay [2] and in [4] were 90% and 100%, respectively. Also, the pest or weed control at 5 µg/cm2 in assay [3] stood at 100%. The mortality (as a rule, the share of the test organisms that died) at 500 g/ha in [5] came out at 100%. Moreover, in assay [6], the pest or weed control at 1 µg/cm2, 100 g/ha was found to be 100%. For the same compound, the “activity (nematicidal activity based on gall formation)” value (from here on “activity”) in assay [7] is reported as 100%. Besides, in assay [8], the pest or weed control at 32 µg/disc, 100 g/ha was found to be 100%. In addition, the mortality at 20 mg/m2 in assay [9] and in assay [10] was 80 to 100% in each case.

Regarding `Cc1nc([C@H](C)NC(=O)c2cc(Cl)cc(C(F)(F)F)c2)n(-c2cc(C(=O)N3CCC3)ccn2)n1` [Example I-28], in [11], the mortality at 100 ppm came out at 100%. Further, the pest or weed control at 0.004 mg in [12] is 80%. Moreover, in assay [6], the pest or weed control at 1 µg/cm2, 100 g/ha was 90% and the pest or weed control at 5 µg/cm2, 500 g/ha was 90%. In assay [7], the “activity” value is given as 90%.

Turning to `Cc1nc([C@H](C)NC(=O)c2cc(Cl)cc(C(F)(F)F)c2)n(-c2cc(C(=O)N3CCCC3)ccn2)n1` [Example I-27], the mortality at 100 ppm in assay [11] amounted to 100%. In [1], the pest or weed control at 5 µg/cm2, 500 g/ha was 80%. Also, the pest or weed control at 0.004 mg in [12] stood at 80%. In assay [6], the pest or weed control at 1 µg/cm2, 100 g/ha worked out at 100% and the pest or weed control at 5 µg/cm2, 500 g/ha was determined as 100%. In assay [7], the “activity” value turned out to be 90%.

Turning to `CC1CN(C(=O)c2ccc(-n3ncnc3[C@H](C)NC(=O)c3cc(C(F)(F)F)cc(S(C)(=O)=O)c3)nc2)CCO1` (stereo partly drawn) [Example I-81], the mortality at 4 ppm in assay [13] was 100%. Further, the mortality at 500 g/ha in assay [14] and in assay [5] was 100% each time. For the same compound, the mortality at 100 g/ha in [5] (application rate 100 g/ha) came to 100%. For the same compound, in assay [7], the “activity” value was determined as 100%.
